{"source": "patent US20220372560A1", "about": "“METHODS FOR DETECTING OLIGONUCLEOTIDES” (Takeda Pharmaceutical Company Limited, priority 2019, published 2022)", "assay": "Persistence of PMO and P-PMO in serum and tissues two weeks post-last dose (FIGS. 5a, 5b)", "assay_type": "in vivo", "details": "mice", "experimental": "PMO or P-PMO serial dilutions for standard curves and quality controls in 5.0% mouse serum, and 5.0 mg/ml or 1.0 mg/ml tissue homogenates were made using 1×TE buffer supplemented with 0.1% v/v Triton X-100 with a starting concentration of 51.2 nM PMO/P-PMO. Serum samples were diluted 20-fold, and tissues were homogenized and diluted to 5.0 mg/ml or 1.0 mg/ml tissue homogenates with the same buffer. 200 μL of calibrator solution, quality control, and/or sample were treated with 20 μL of 40 mg/ml trypsin (purchased as lyophilized powder from Sigma-Aldrich) at 37° C. overnight in a deep 1.0-mL 96-well plate on thermomixer C (600 rpm) to cleave the peptide component and release the PMO. 40 μL of 2.5 nM oligonucleotide probe in hybridization buffer (with 0.1% serum) was added to each well. The plate was then sealed, incubated at 65° C. for 15 minutes (600 rpm), and allowed to cool at room temperature for 15 minutes. […] The intensity of fluorescence at 444 nm excitation and 555 nm emission was measured by a […] SpectraMax MT5 microplate reader.\nIn order to test the persistence of oligonucleotides, serum and various tissues were also analyzed two weeks post-last dose. Serum levels for both PMO and P-PMO treated mice were measured in the 1 nM range. At this time point the overall oligonucleotide levels in the tissues analyzed were also similar (FIG. 5a). […]"}
{"substance": "PMO: 25-mer PMO antisense sequence for mouse dystrophin exon-23, 5′-GGCCAAACCTCGGCTTACCTGAAAT-3′ (SEQ ID NO: 1), not conjugated to a peptide (all phosphorodiamidate morpholino (PMO))", "values": [{"measurement": "serum levels", "result": "~1", "unit": "nM"}, {"measurement": "overall oligonucleotide levels in the tissues analyzed, PMO compared with P-PMO", "setting": "absolute concentrations (FIG. 5a)", "result": "similar"}]}
